This note sets out measurements from patent US20250025443A1, “COMPOUNDS AND METHODS FOR TREATING CORONA VIRUSES” (CLEAR CREEK BIO, INC., priority 2021, published 2025).

In the first assay the target is SARS-CoV-2 Papain-Like Protease (PLpro) (Severe acute respiratory syndrome coronavirus 2 (2019-nCoV) (SARS-CoV-2), UniProt P0DTD1). In words: biochemical. The following applies: PLpro IC50, SARS-CoV-2 PLpro enzymatic fluorescence assay.
Usually IC50 stands for the concentration needed to halve the response being measured. Take `Cc1ccc(C2=CCNCC2)cc1C(=O)NC1(c2cccc3ccccc23)CC1` [Compound 399, 2-Methyl-N-(1-(naphthalen-1-yl)cyclopropyl)-5-(1,2,3,6-tetrahydropyridin-4-yl)benzamide]: the 50% inhibitory concentration (IC50) was less than 0.1 µM.

The same assay, now with this note: SARS-CoV-2 PLpro enzymatic fluorescence assay; read-out: PLpro IC50.
`Cc1ccc(OC[C@@H]2CCCN2)cc1C(=O)NC1(c2cccc3ncccc23)CC1` [Compound 380, (S)-2-Methyl-5-(pyrrolidin-2-ylmethoxy)-N-(1-(quinolin-5-yl)cyclopropyl)benzamide]: the IC50 was less than 0.1 µM. The same measure, in the same setting: as for `Cc1ccc(OC[C@@H]2CCN2)cc1C(=O)NC1(c2cccc3ncccc23)CC1` [Compound 381, (S)-5-(Azetidin-2-ylmethoxy)-2-methyl-N-(1-(quinolin-5-yl)cyclopropyl)benzamide], the figure is less than 0.1 µM; as for `Cc1ccc(OC[C@H]2CCCN2C)cc1C(=O)NC1(c2cccc3ncccc23)CC1` [Compound 382, (R)-2-Methyl-5-((1-methylpyrrolidin-2-yl)methoxy)-N-(1-(quinolin-5-yl)cyclopropyl)benzamide], less than 0.1 µM; as for `Cc1ccc(OC[C@H]2CCN2)cc1C(=O)NC1(c2cccc3ncccc23)CC1` [Compound 383, (R)-5-(Azetidin-2-ylmethoxy)-2-methyl-N-(1-(quinolin-5-yl)cyclopropyl)benzamide], less than 0.1 µM. Same read-out and setting: as for `COc1cc(C2(NC(=O)c3cc(OCC4CCN4C)ccc3C)CC2)c2ccccc2c1` (centres unmarked) [Compound 384, N-(1-(3-methoxynaphthalen-1-yl)cyclopropyl)-2-methyl-5-((1-methylazetidin-2-yl)methoxy)benzamide], the figure is less than 0.1 µM.

`CNCCOc1ccc(C)c(C(=O)NC2(c3cccc4ncccc34)CC2)c1` [Compound 385, 2-Methyl-5-(2-(methylamino)ethoxy)-N-(1-(quinolin-5-yl)cyclopropyl)benzamide]: the IC50 was less than 0.1 µM. On the same count and under the same terms, as for `Cc1ccc(OCC2CCN2C)cc1C(=O)N[C@@H](c1cccc2ccccc12)C(F)(F)F` (stereo partly drawn) [Compound 386, 2-Methyl-5-((1-methylazetidin-2-yl)methoxy)-N-((S)-2,2,2-trifluoro-1-(naphthalen-1-yl)ethyl)benzamide], the figure is less than 0.1 µM; as for `Cc1ccc(OCC2CCN2C)cc1C(=O)NC1(c2cccc3ccccc23)COC1` (centres unmarked) [Compound 387, 2-Methyl-5-((1-methylazetidin-2-yl)methoxy)-N-(3-(naphthalen-1-yl)oxetan-3-yl)benzamide], less than 0.1 µM; as for `Cc1ccc(OCCN(C)C)cc1C(=O)NC1(c2cccc3cccnc23)CC1` [Compound 388, 5-(2-(Dimethylamino)ethoxy)-2-methyl-N-(1-(quinolin-8-yl)cyclopropyl)benzamide], less than 0.1 µM. On the same count and under the same terms, as for `Cc1ccc(OC[C@@H]2CCN2C)cc1C(=O)NC1(c2cccc3cc(F)ccc23)CC1` [Compound 389, (S)-N-(1-(6-Fluoronaphthalen-1-yl)cyclopropyl)-2-methyl-5-((1-methylazetidin-2-yl)methoxy)benzamide], the figure is less than 0.1 µM; as for `Cc1ccc(OC[C@H]2CCN2C)cc1C(=O)NC1(c2cccc3ncccc23)CC1` [Compound 390, (R)-2-Methyl-5-((1-methylazetidin-2-yl)methoxy)-N-(1-(quinolin-5-yl)cyclopropyl)benzamide], less than 0.1 µM.

Turning to `Cc1ccc(OC[C@@H]2CCN2C)cc1C(=O)NC1(c2cccc3ncccc23)CC1` [Compound 391, (S)-2-Methyl-5-((1-methylazetidin-2-yl)methoxy)-N-(1-(quinolin-5-yl)cyclopropyl)benzamide], the half-maximal inhibitory concentration (IC50) was less than 0.1 µM. Still for that read-out and setting: as for `Cc1ccc(OC[C@@H]2CCN2)cc1C(=O)NC1(c2cccc3cc(F)ccc23)CC1` [Compound 392, (S)-5-(Azetidin-2-ylmethoxy)-N-(1-(6-fluoronaphthalen-1-yl)cyclopropyl)-2-methylbenzamide], the figure is less than 0.1 µM; as for `Cc1ccc(OCCN(C)C)cc1C(=O)NC1(c2cn(-c3ccccc3)c3ccccc23)CC1` [Compound 395, 5-(2-(Dimethylamino)ethoxy)-2-methyl-N-(1-(1-phenyl-1H-indol-3-yl)cyclopropyl)benzamide], less than 0.1 µM. For the compound `Cc1ccc(OCC2CCN2CC(F)(F)F)cc1C(=O)NC1(c2cccc3ccccc23)CC1` (centres unmarked) [Compound 396, 2-Methyl-N-(1-(naphthalen-1-yl)cyclopropyl)-5-((1-(2,2,2-trifluoroethyl)azetidin-2-yl)methoxy)benzamide], the IC50 was 1 to 5 µM. Turning to `CCCC1COc2cc(C(=O)NC3(c4cccc5ccccc45)CC3)c(C)cc21` (centres unmarked) [Compound 397, 5-Methyl-N-(1-(naphthalen-1-yl)cyclopropyl)-3-propyl-2,3-dihydrobenzofuran-6-carboxamide], the 50% inhibitory concentration (IC50) lay within 0.1 to 1 µM. With `Cc1ccc(C2=CCNC2)cc1C(=O)NC1(c2cccc3ccccc23)CC1` [Compound 398, 5-(2,5-Dihydro-1H-pyrrol-3-yl)-2-methyl-N-(1-(naphthalen-1-yl)cyclopropyl)benzamide], the IC50 was less than 0.1 µM. As to `COCC(N)COc1ccc(C)c(C(=O)NC2(c3cccc4ccccc34)CC2)c1` (centres unmarked) [Compound 400, 5-(2-Amino-3-methoxypropoxy)-2-methyl-N-(1-(naphthalen-1-yl)cyclopropyl)benzamide], the IC50 was less than 0.1 µM.

Turning to `Cc1cc(C2(NC(=O)c3cc(OCCN(C)C)ccc3C)CC2)c2ccccc2c1` [Compound 401, 5-(2-(Dimethylamino)ethoxy)-2-methyl-N-(1-(3-methylnaphthalen-1-yl)cyclopropyl)benzamide], the IC50 was less than 0.1 µM. The same measure, in the same setting: as for `Cc1ccc(OCC2CCN2C)cc1C(=O)NC1(c2cccc3cnccc23)CC1` (centres unmarked) [Compound 402, N-(1-(Isoquinolin-5-yl)cyclopropyl)-2-methyl-5-((1-methylazetidin-2-yl)methoxy)benzamide], the figure is less than 0.1 µM; as for `Cc1nc2cccc(C3(NC(=O)c4cc(OCCN(C)C)ccc4C)CC3)c2s1` [Compound 403, 5-(2-(Dimethylamino)ethoxy)-2-methyl-N-(1-(2-methylbenzo[d]thiazol-7-yl)cyclopropyl)benzamide], 0.1 to 1 µM. Take `Cc1ccc(OCC2(C)CCN2C)cc1C(=O)NC1(c2cccc3ccccc23)CC1` (centres unmarked) [Compound 404, 5-((1,2-Dimethylazetidin-2-yl)methoxy)-2-methyl-N-(1-(naphthalen-1-yl)cyclopropyl)benzamide]: the half-inhibitory concentration (IC50) is less than 0.1 µM.

Turning to `Cc1cc(C)c(C(=O)NC2(c3cccc4ccccc34)CC2)cc1OCCN(C)C` [Compound 405, 5-(2-(Dimethylamino)ethoxy)-2,4-dimethyl-N-(1-(naphthalen-1-yl)cyclopropyl)benzamide], the concentration for half-maximal inhibition (IC50) is less than 0.1 µM. Same read-out and setting: as for `Cc1ccc(C2CCNCC2)cc1C(=O)NC1(c2cccc3ccccc23)CC1` [Compound 407, 2-Methyl-N-(1-(naphthalen-1-yl)cyclopropyl)-5-(piperidin-4-yl)benzamide], the figure is less than 0.1 µM; as for `CCSc1cc(C2(NC(=O)c3cc(OCCN(C)C)ccc3C)CC2)c2ccccc2c1` [Compound 408, 5-(2-(Dimethylamino)ethoxy)-N-(1-(3-(ethylthio)naphthalen-1-yl)cyclopropyl)-2-methylbenzamide], less than 0.1 µM; as for `Cc1ccc(OCCN(C)C)cc1C(=O)NC1(c2cncc3ccccc23)CC1` [Compound 409, 5-(2-(Dimethylamino)ethoxy)-N-(1-(isoquinolin-4-yl)cyclopropyl)-2-methylbenzamide], less than 0.1 µM.

Take `Cc1ccc(N2CCNCC2)cc1C(=O)NC1(c2cccc3ccccc23)CC1` [Compound 410, 2-Methyl-N-(1-(naphthalen-1-yl)cyclopropyl)-5-(piperazin-1-yl)benzamide]: the IC50 was less than 0.1 µM. Regarding `Cc1ccc(N2CCCNCC2)cc1C(=O)NC1(c2cccc3ccccc23)CC1` [Compound 411, 5-(1,4-Diazepan-1-yl)-2-methyl-N-(1-(naphthalen-1-yl)cyclopropyl)benzamide], the half-maximal inhibitory concentration (IC50) was less than 0.1 µM.

For `Cc1ccc(NCCN(C)C)cc1C(=O)NC1(c2cccc3ccccc23)CC1` [Compound 412], the IC50 is less than 0.1 µM. `Cc1ccc(C2CCNC2)cc1C(=O)NC1(c2cccc3ccccc23)CC1` (centres unmarked) [Compound 413, 2-Methyl-N-(1-(naphthalen-1-yl)cyclopropyl)-5-(pyrrolidin-3-yl)benzamide]: the IC50 was less than 0.1 µM. On the same count and under the same terms, as for `Cc1ccc(OC[C@H]2C[C@H](O)CN2)cc1C(=O)NC1(c2cccc3ccccc23)CC1` [Compound 414, 5-(((2R,4S)-4-Hydroxypyrrolidin-2-yl)methoxy)-2-methyl-N-(1-(naphthalen-1-yl)cyclopropyl)benzamide], the figure is less than 0.1 µM; as for `Cc1ccc(OCCN(C)C)cc1C(=O)NC1(c2cccc3[nH]c4ccccc4c23)CC1` [Compound 415, N-(1-(9H-Carbazol-4-yl)cyclopropyl)-5-(2-(dimethylamino)ethoxy)-2-methylbenzamide], 0.1 to 1 µM.

Regarding `Cc1ccc(OCCN(C)C)cc1C(=O)NC1(c2cccc3ccc(O)cc23)CC1` [Compound 417, 5-(2-(Dimethylamino)ethoxy)-N-(1-(7-hydroxynaphthalen-1-yl)cyclopropyl)-2-methylbenzamide], the half-inhibitory concentration (IC50) is less than 0.1 µM. The same measure, in the same setting: as for `Cc1ccc(N2CCN(C)CC2)cc1C(=O)NC1(c2cccc3ccccc23)CC1` [Compound 418, 2-Methyl-5-(4-methylpiperazin-1-yl)-N-(1-(naphthalen-1-yl)cyclopropyl)benzamide], the figure is less than 0.1 µM; as for `COc1cc(C2(NC(=O)c3cc(OC[C@@H]4CCCN4)ccc3C)CC2)c2ccccc2c1` [Compound 419, (S)-N-(1-(3-Methoxynaphthalen-1-yl)cyclopropyl)-2-methyl-5-(pyrrolidin-2-ylmethoxy)benzamide], less than 0.1 µM. For `Cc1ccc(OCCN(C)C)cc1C(=O)NC1(c2cc(-c3cccs3)cc3ccccc23)CC1` [Compound 420, 5-(2-(Dimethylamino)ethoxy)-2-methyl-N-(1-(3-(thiophen-2-yl)naphthalen-1-yl)cyclopropyl)benzamide], the IC50 is less than 0.1 µM. In the case of `Cc1ccc(N(C)CCN(C)C)cc1C(=O)NC1(c2cccc3ccccc23)CC1` [Compound 421], the concentration for half-maximal inhibition (IC50) is less than 0.1 µM.
